Like-named read-outs stand apart in the source and are kept apart here.
Assays:
[1] = target: T1, NK1 (Homo sapiens, UniProt P14210); experiment: SPR steady-state binding to immobilized NK1 (Biacore T100); set-up: made in house; host or cells: Pichia pastoris
Experimental: Binding constants of piperazine-like compounds and fragments were determined using a Biacore T100 instrument. NK1 was immobilized on a CM5 chip by amine coupling to a density of 6000 RU. Compounds were stored as 100 mM stock solutions in water and serial dilutions were prepared in the running buffer (PBS pH 7.4, 0.05% Tween 20). The compound solutions were injected onto the surface of the chip at a flow rate of 30 μL min^–1, contact time was 1 min and dissociation time 1 min. Sensorgrams were analysed using the Biacore T100 evaluation software and the binding constants determined.

[2] = target: T1, NK1; experiment: SPR fragment library screening against NK1; type: binding; set-up: made in house; host or cells: Pichia pastoris; conditions: for Ranking order: based on fragment screening, rank among the 71 NK1 hits (ESI Tables S3-S7); for SPR response: normalised relative value against NK1
Experimental: Supplementary Materials and Methods
Fragment library screening and data analysis
Met567 (soluble truncated f ragment of the MET ectodomain, residues 25- 567), NK1 and t he SPH domain were immobilized on CM5 chips by amine coupling. NK1 was diluted into 10 m M phosphate pH 7.0 and the SPH domain into 10 mM acetate pH 5.5 to a final concentration of 2.5 μM and 1 μM, respectively, for coupling. The immobilization wizard within the Biacore T100 software was set to “aim for immobiliz ed level” of 8000 RU to achieve complete saturation of the chip surface.
W ith minor deviations, the procedure and conditions outlined below were used f or a ll screening s of an in-house fragment library of 1338 members against individual target proteins. The running buffer was PBS pH 7.4, 0.05% Tween 20, 0.25% DMSO (1% DMSO for Met567). Fragments were stored as 100 mM stock solutions in DMSO. Prior to screening, fragment samples were diluted to 500 μM (1 mM f or Met567) in running buffer.
Screening was performed in 96- we ll plates at a flow rate of 30 μl min-1 with 1 min sample injection f ollowed by dissociation f or 1 min and surf ace regeneration using 1 M NaCl f or 30 […]
post-regeneration baseline exceeded the pre- sample baseline by more than 10 RU, a second regeneration cycle with 50% ethylene glycol was used. In order to be able to correct for small variations in DMSO concentration between samples, eight solvent samples ranging from 0.012 to 1.5% DMSO were injected every 40th cycle. To monitor the binding capacity of the NK1, SPH and Met567 surfaces throughout the screening, injections of 500 μM HEPES (NK1), 0.25 μM Met567 (SPH) and 0.2 μM NK1 and 1% DMSO (Met567) were carried out every 40th cycle. The flow cell temperature was 25°C. NK1 and the SPH domain were immobilized on the same chip (channels 2 and 3 respectively) and were theref ore screened in parallel. Met567 was screened separately and results are published in an accompanying paper (W in t er et al. 2015, in revision).
For data analysis, fir st, all responses were reference and solvent corrected. 1 Next, equilibrium binding for every fragment was determined and hits established by applying several filters: sensorgram shape, upper and lower threshold. Typical sensorgrams from fragment screening show “square curves” in SPR due to the fast on and off rates and fragments not showing this response were discarded from further analysis. Binding levels are represented as response units (RU) but the SPR signal is a convolution of multiple parameters including target coupling density, target -binding activity, target molecular weight and molecular weight of each injected fragment. To be able to identif y hits accurately and to be able to compare responses between different plates and targets, data were normalised against these factors. First the theoretical maximum response for each fragment was calculated using equation 1:
RRmmm = CCCCCCCC ddCdCdd× MMffmCmdCd (Equation 1)
This RUmax value diff ers for each protein target because it depends on the molecular weight of the protein and the amount of protein immobilized on the chip (coupling density). The RUmax was then used to calculate the normalised relative SPR response:
NNNNNNNNNN NNNNr NrN SSR NNNrNrNN = RRcppppcppc× 100% (Equation 2) […]
fragment should cause upon binding. 100% response would be 1:1 binding wit h levels above 100% implying over-stoichiometric binding. […]
Fragment library screening to identify small molecule binders

[3] = steady-state binding constant from SPR, MB605-related compounds (Table 4), read-out: KD
[4] = fragments 500 μM (ESI Tables S3-S7)
[5] = initial fragment screening, fragments 500 μM (Table 3)
[6] = steady-state binding constant from SPR, fragment hits (Table 3, text), read-out: KD
[7] = steady-state binding constant from SPR (ESI Tables S3-S7), read-out: KD

T1 sequence (P14210 32-210 isoform P14210-6 limits assumed): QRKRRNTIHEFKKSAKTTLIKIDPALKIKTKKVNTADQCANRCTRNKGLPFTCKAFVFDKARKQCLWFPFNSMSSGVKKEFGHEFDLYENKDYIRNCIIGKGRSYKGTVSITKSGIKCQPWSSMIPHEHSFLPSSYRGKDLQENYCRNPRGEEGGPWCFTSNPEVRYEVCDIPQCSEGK

Row | SMILES | Ranking order [2] | SPR response [2, 4] [%] | further results
1 | O=C(O)CCc1ccccc1 [501-520-0, hydrocinnamic acid] |  |  | Kd [1, 3]: 2200 ± 900 µM
2 | O=P(O)(O)CCc1ccccc1 [4672-30-4, 2-phenylethyl phosphonic acid] |  |  | Kd [1, 3]: 2200 ± 400 µM
3 | O=C(O)CCc1cccs1 [5928-51-8, 2-thiophenepropanoic acid] |  |  | Kd [1, 3]: 1100 ± 300 µM
4 | c1ccc2[nH]ncc2c1 [AT0381] | 44 | 53 | Kd ([1]; KD): 740 ± 60 µM; SPR response [2, 5]: 53%
5 | O=C(O)c1ccc2[nH]ncc2c1 [AT0541] | 38 | 56 | 
6 | Nc1ncccn1 [CA023] | 46 | 52 | Kd [1, 6]: 770 ± 60 µM; SPR response [2, 5]: 52%
7 | CC1(C(=O)O)CC2C=CC1C2 (centres unmarked) [MB385] | 42 | 54 | 
8 | Cc1cccc(CO)n1 [MB389] | 23 | 72 | Kd [1, 7]: 4320 µM
9 | Nc1ccc(F)cc1F [MB396] | 18 | 83 | Kd [1, 7]: 1100 µM
10 | Cc1cc(N)no1 [MB397] | 20 | 81 | 
11 | Nc1ccncc1 [MB404] | 5 | 118 | Kd [1, 7]: 2800 µM
12 | OC12CC3CC(CC(C3)C1)C2 [MB405] | 40 | 56 | 
13 | Nc1cccc(OC(F)(F)F)c1 [MB406] | 54 | 42 | 
14 | Nc1cccc(S(N)(=O)=O)c1 [MB409] | 59 | 36 | 
15 | NC(=O)c1ccc(-c2csnn2)cc1 [MB414] | 50 | 50 | 
16 | CCOC(=O)c1cnc2n(c1=O)CCS2 [MB415] | 58 | 37 | 
17 | O=C(O)c1coc2c1C(=O)CCC2 [MB417] | 17 | 87 | Kd [1, 6]: 420 ± 40 µM; SPR response [2, 5]: 87%
18 | Cc1nc(C(C)(C)C)cs1 [MB887] | 32 | 62 | 
19 | Cc1nn(C)c(C)c1N [MB893] | 36 | 59 | Kd [1, 7]: 1500 µM
20 | COc1cccc(OC)c1SC [MB894] | 51 | 49 | 
21 | Cc1nc(CC(=O)O)cs1 [MB895] | 45 | 53 | Kd [1, 6]: 430 ± 50 µM; SPR response [2, 5]: 53%
22 | O=C(O)c1ccccc1C(=O)c1ccc(F)cc1 [MB900] | 69 | 28 | 

Row | SMILES | Ranking order [2] | SPR response [2, 4] [%] | further results
23 | COC(=O)c1sc(C(C)(C)C)cc1N [MB914] | 63 | 34 | 
24 | N#Cc1ccsc1N [MB915] | 24 | 71 | Kd [1, 7]: 1600 µM
25 | COC(=O)c1scc(C)c1Cl [MB916] | 64 | 34 | 
26 | Cc1csc(C(=O)O)c1 [MB921] | 52 | 49 | 
27 | FC(F)(F)c1cc[nH]n1 [MB925] | 48 | 52 | Kd [1, 7]: 1300 µM
28 | Cn1ccc(C(F)(F)F)n1 [MB926] | 66 | 30 | 
29 | Cc1cc(N)n(C)n1 [MB935] | 41 | 54 | Kd [1, 7]: 1000 µM
30 | Cc1cc(N)[nH]n1 [MB936] | 39 | 56 | Kd [1, 7]: 30000 µM
31 | N#CCCNCC1CCCO1 (centres unmarked) [MB975] | 65 | 33 | 
32 | Cc1ncsc1C(=O)O [MB996] | 56 | 38 | 
33 | CNCc1ccncc1 [MB1003] | 6 | 107 | Kd [1, 7]: 6400 µM
34 | CC1CCN(C(=O)C2CCCCN2)CC1 (centres unmarked) [MB1015] | 60 | 35 | 
35 | CCC1CCC(N)CC1 (centres unmarked) [MB1016] | 61 | 35 | 
36 | CC(C)(N)CN1CCCC1 [MB1017] | 71 | 26 | 
37 | CN(C)C(=O)c1ccc2nccnc2c1 [MB1058] | 29 | 63 | 
38 | CN(C)C(=O)C1CCOCC1 [MB1065] | 57 | 38 | 
39 | O=C(C1CCOCC1)N1CCCCC1 [MB1066] | 62 | 34 | 
40 | O=C(C1CCCCO1)N1CCCC1 (centres unmarked) [MB1067] | 68 | 28 | 
41 | NC(=S)N1CCOCC1 [MB1082] | 43 | 53 | Kd [1, 6]: 370 ± 40 µM; SPR response [2, 5]: 53%
42 | Nc1ccc(OC(F)(F)F)cc1 [MB1100] | 70 | 27 | 
43 | O=C(O)C1CCNCC1 [MB1129] | 67 | 30 | 
44 | Cc1noc(N)c1C [MB1136] | 55 | 39 | 

Row | SMILES | Ranking order [2] | SPR response [2, 4] [%] | further results
45 | NC(=O)Cc1ccc(O)cc1 [MB1174] | 53 | 43 | 
46 | CSc1ccc(C(=O)O)s1 [MB1217] | 49 | 50 | 
47 | NC(=S)c1ncc(C(F)(F)F)cc1N1CCCC1 [MB1218] | 37 | 57 | Kd [1, 7]: 17300 µM
48 | Cc1nc(-c2ccc(C#N)cc2)cs1 [MB1236] | 19 | 83 | Kd [1, 7]: 1200 µM
49 | Cc1ccsc1CN [MB1237] | 4 | 118 | Kd [1, 7]: 4200 µM
50 | Cc1nc(C#N)cs1 [MB1250] | 3 | 126 | Kd [1, 7]: 1800 µM
51 | N#CCOc1cccc(C(F)(F)F)c1 [MB1251] | 27 | 66 | 
52 | Cc1nc(C(N)=S)cs1 [MB1252] | 10 | 101 | Kd [1, 7]: 5200 µM
53 | COC(=O)c1ccccc1F [MB1253] | 11 | 98 | Kd [1, 7]: 2900 µM
54 | Cc1ccc(C#N)c(=O)[nH]1 [MB1260] | 8 | 105 | Kd [1, 7]: 5600 µM
55 | CC(=O)c1ccc(OC(F)(F)F)cc1 [MB1291] | 26 | 68 | 
56 | COC(=O)c1ccccc1OC(F)(F)F [MB1292] | 30 | 63 | 
57 | CCc1cccc(C(C)=O)c1 [MB1300] | 14 | 93 | 
58 | COC(=O)c1ccc(F)cc1Cl [MB1301] | 25 | 70 | 
59 | COC(=O)c1ccc(C)c(Cl)c1 [MB1307] | 31 | 62 | 
60 | COC(=O)CSc1ccccc1 [MB1308] | 34 | 60 | 
61 | CC(=O)NCc1cccnc1 [MB1317] | 35 | 60 | 
62 | NC(=O)Cc1ccc(F)cc1Cl [MB1321] | 28 | 65 | 
63 | O=C(O)CCc1ccc(-c2ccccc2F)o1 [T5445870] |  |  | Kd [1, 3]: 2100 ± 300 µM
64 | O=C(O)CCc1cc2ccccc2o1 [T5480685] |  |  | Kd [1, 3]: 700 ± 200 µM

From article PMC6054100, “Exploring the chemical space of the lysine-binding pocket of the first kringle domain of hepatocyte growth factor/scatter factor (HGF/SF) yields a new class of inhibitors of HGF/SF-MET binding” (Chemical Science, 2015)
